Tests used:
K. pneumoniae 667 = assay: Murine systemic (abdominal) infection model; format: in vivo; settings: mice
Experimental: Mice were randomly assigned to five groups (n = 10) and infected intraperitoneally with K. pneumoniae 667 (8 × 10^6 CFUs). One hour post-infection, treatments were administered intraperitoneally: PBS, β,β-Dim (2 mg/kg), colistin (0.2 mg/kg), or β,β-Dim combined with colistin (2 + 0.2 mg/kg). Survival was continuously monitored. Upon death, the heart, liver, spleen, lungs, and kidney were immediately collected. At five days post-infection, surviving mice were euthanized, and the same organs were harvested. Half of each organ was weighed, homogenized, diluted, and plated on LA plates for bacterial colony enumeration. The remaining tissue samples were used for histopathological analysis.

[1] = test system: E. coli (including mcr-1, mcr-3, and pmrA/B); assay: Checkerboard assay, colistin-resistant E. coli (summary); format: cell-based; settings: with β,β-Dim
Experimental: The FICI of β,β-Dim–colistin combination was determined by a checkerboard assay. Briefly, two-fold serial dilutions of β,β-Dim and colistin were prepared in a 96-well plate. After incubation at 37 °C for 18 h with bacterial suspension (10^6 CFU/mL), OD600 values were measured. FICI = (MICβ,β-Dim in combination/MICβ,β-Dim) + (MICcolistin in combination/MICcolistin). The synergistic effect of β,β-Dim with other antibiotics was measured in the same way. Synergy was considered to be an FICI ≤ 0.5.

[2] = test system: E. coli BW25113, E. coli BW25113-mcr-1, E. coli BW25113-pmrBR93P; assay: Intracellular colistin content (HPLC-MS/MS); format: cell-based; settings: colistin 0.5 × MIC with β,β-Dim at the highest tested concentration; 30 min
Experimental: (§1) Overnight cultures E. coli BW25113, E. coli BW25113-mcr-1, and E. coli 1 BW25113-pmrBR93P were diluted to 10^8 CFU/mL and then co-incubated with colistin (0.5 × MIC) in the presence of β,β-Dim (0–4 μg/mL) for 30 min at 37 °C. The cultures were centrifuged and resuspended in 30% methanol. Bacteria were disrupted by sonication and centrifugation, supernatants were diluted in 20% acetonitrile, and intracellular colistin was quantified via HPLC-MS/MS (TQ-XS, Waters, Milford, MA, USA). Analyses were performed on a CORTECS Shield RP C18 column (Waters, Milford, MA, USA) at 40 °C, with a flow rate of 0.4 mL/min and an injection volume of 5 μL. The mobile phases consisted of solvent A (0.5% formic acid and acetonitrile in water) and solvent B (0.5% formic acid in water). Colistin was detected in positive ESI mode with ion transitions […] and m/z 386.0 > 101.0. […] Mobile phases included solvent A (acetonitrile) and solvent B (water). β,β-Dim was detected in the negative electrospray ionization (ESI) mode with ion transitions m/z 369.1 > 269.0 and m/z 369.1 > 241.0.

S. aureus ATCC 29213 [3] = assay: Membrane potential, proton gradient and PMF; format: cell-based
[4] = rats; cited from earlier work
S. aureus ATCC 29213 [5] = assay: Effect of membrane components on antibacterial activity; format: cell-based
Experimental: The effects of membrane components on the antibacterial activity of β,β-Dim were evaluated using the checkerboard method by exogenous addition of phosphatidylethanolamine (PE), phosphatidylglycerol (PG), and cardiolipin (CL). The same procedure was followed with pre-addition of the respective components to CAMHB to explore their impact on the β,β-Dim–colistin combination in E. coli.

[6] = acute oral, mice; cited from earlier work
E. coli spheroplasts = assay: Membrane permeability of spheroplasts (PI); format: cell-based
Experimental: The cytoplasmic membrane LPS concentrations of E. coli BW25113, E. coli BW25113-mcr-1, and E. coli BW25113-pmrBR93P were quantified using a Chromogenic LAL Endotoxin Assay Kit (Cat No, C0273S, Beyotime, Shanghai, China). Firstly, spheroplasts were prepared according to a previously described method to remove the outer membrane. Briefly, bacterial cells were washed with Tris buffer and resuspended in Tris buffer containing 20% sucrose. EDTA (250 μL, 10 mg/mL) and lysozyme (1 mL, 10 mg/mL) were added, followed by incubation at 30 °C for 1 h with shaking at 80 rpm. Trypsin (500 μL, 10 mg/mL) was added and incubated for an additional 15 min. […] Then, the released LPS was quantified by reacting with LPS detection reagents, and absorbance was measured at 405 nm.
The S. aureus ATCC 29213 bacterial suspension (OD600 = 0.5) was incubated with fluorescent probe propidium iodide (PI, Cat No. C1008S, Beyotime, Shanghai, China, final concentration 10 µM) for 30 min. […] Fluorescence intensity was measured at an excitation/emission wavelength of 535/615 nm. The cytoplasmic membrane permeability of E. coli BW25113, E. coli BW25113-mcr-1, and E. coli BW25113-pmrBR93P induced by β,β-Dim was assessed by preparing spheroplasts.

[7] = cited from earlier work
[8] = test system: E. coli BW25113, E. coli BW25113-mcr-1, and E. coli BW25113-pmrBR93P; assay: Intracellular β,β-Dim content (HPLC-MS/MS); format: cell-based; settings: β,β-Dim 16 μg/mL with colistin 0–1 × MIC; three E. coli strains
Experimental: as §1

S. aureus ATCC 29213 [9] = assay: Membrane permeability (PI); format: cell-based; settings: β,β-Dim 0–32 µg/mL, 1 h
Experimental: The S. aureus ATCC 29213 bacterial suspension (OD600 = 0.5) was incubated with fluorescent probe propidium iodide (PI, Cat No. C1008S, Beyotime, Shanghai, China, final concentration 10 µM) for 30 min. Then, β,β-Dim (0–32 µg/mL) was added to the PI-labeled suspension in a black 96-well plate and incubated for 1 h. Fluorescence intensity was measured at an excitation/emission wavelength of 535/615 nm. The cytoplasmic membrane permeability of E. coli BW25113, E. coli BW25113-mcr-1, and E. coli BW25113-pmrBR93P induced by β,β-Dim was assessed by preparing spheroplasts.

| Compound | survival rate (K. pneumoniae 667; day 5 post-infection, single i.p. β,β-Dim 2 mg/kg, colistin 0.2 mg/kg) | histopathological analysis (tissue damage) (K. pneumoniae 667; heart, liver, spleen, lung, kidney) | improvement of colistin efficacy (MIC reduction) [1] | intracellular colistin levels [2] | membrane potential, proton gradient, PMF (S. aureus ATCC 29213 [3]) | maximum tolerable dose [4] | no-observed-adverse-effect level (NOAEL) [4] | antibacterial activity with exogenous PE, PG, and CL (S. aureus ATCC 29213 [5]) | increase of MIC by CL (S. aureus ATCC 29213 [5]; CL 40 μM) | median lethal dose (LD50) [6] | membrane permeability (E. coli spheroplasts) | lipophilicity [7] | intracellular β,β-Dim accumulation [8] | membrane permeability (PI fluorescence intensity) (S. aureus ATCC 29213 [9]) |
| --- | --- | --- | --- | --- | --- | --- | --- | --- | --- | --- | --- | --- | --- | --- |
| colistin | 20% | partially alleviated these lesions | 4–32 fold | exceeding 0.6 µg per 10^8 CFUs | – | – | – | – | – | – | – | – | – | – |
| CC(C)=CC[C@H](OC(=O)C=C(C)C)C1=CC(=O)c2c(O)ccc(O)c2C1=O [β,β-Dim, β,β-dimethylacrylalkannin] | – | – | – | – | increased membrane potential in S. aureus ATCC 29213, reduced the proton gradient, and dissipated the PMF | exceeds 10 g/kg | 10 mg/kg | attenuated the antibacterial activity | 4 fold | exceeds 10 g/kg | markedly increased membrane permeability | high lipophilicity | approximately 60 ng per 10^8 CFUs | increased membrane permeability in a concentration-dependent manner |
